The nature of data set [1]: Skin permeation, Franz diffusion cells. Format: in vitro ADME, human. To be noted: for Enhancement Ratio: human. How it is done:
The flux can be measured with a standard procedure using Franz diffusion cells, and the experiments were done on human cadaver skin. With Franz cells, in each Franz diffusion cell a disc (diameter of 25 mm) of human cadaver skin is placed on the receptor compartment. A transdermal delivery system is cut the same size as the skin and placed over the diffusion area in the center of the receptor. The donor compartment is then added and clamped to the assembly. At time 0, receptor medium solution 14 mL is added into the receptor compartment and the cell maintained at 32° C. Samples of the receptor compartment are taken periodically to determine the skin flux and analyzed by HPLC.
Skin permeation of various formulations were tested. The results are provided in FIGS. 1, and 2 and Tables 5 and 6. Higher the amount of the galantamine in the adhesives will increase the penetration, but when over the saturation point, the transdermal system will crystalize, and result a low penetration rate.
When adding an enhancer, it might improve the penetration rate. […] When increase the amount of the enhancer, it might not improve the penetration rate.
A co-solvent helps dissolving the drug in the adhesive but it might also help with the penetration rate.

Data set [2] is described as follows: Antioxidant effect on galantamine stability under normal and stress conditions. Format: physicochemical.
Where [3] appears, read: galantamine with the antioxidant (label), 25′C.
The mark [4] stands for this setting: galantamine with the antioxidant (label), 60′C-14 D.
The mark [5] stands for this setting: galantamine with the antioxidant (label), 80′C-1 D.
[6] abbreviates: galantamine with the antioxidant (label), 80′C-4 D.

“And” between values parts separate entries of the source, which are not always exact repeats. Identical values can stand only once. Like-named read-outs stand apart in the source and are kept apart here.

This note sets out measurements from patent US20180008612A1 (priority 2016, published 2018).

Take `CCOCCOCCO` [Transcutol P, diethylene glycol monoethyl ether]: the penetration rate result in data set [1] is given as “improves the penetration rate”. In addition, the results for the “Enhancement Ratio” value in data set [1] (5 %) and in data set [1] (5 % w/w) were 5 and 4, respectively.
Consider `CCCCCCCC/C=C\CCCCCCCC(=O)OCC` [Ethyl Oleate, ethyl oleate], for which, in data set [1] (3 % w/w), the “Enhancement Ratio” value was determined as 2.
For `CCCCCCCC/C=C\CCCCCCCC(=O)O` [Oleic Acid, oleic acid], the “Enhancement Ratio” value in data set [1] (3 % w/w) is listed as 1.
With `CC(O)CO` (stereo not shown) [Propylene Glycol, propylene glycol], the “Enhancement Ratio” value in data set [1] (5 % w/w) stood at 4; in data set [1] (10 % w/w), 7.
In the case of `O=S([O-])S(=O)(=O)[O-].[Na+].[Na+]` [Sodium metabisulfite, sodium metabisulfite], the “Total Impurity Amount %” value is recorded as 0.17% in data set [2] (setting [3]), 0.45% in data set [2] (setting [4]), 0.14% in data set [2] (setting [5]) and 0.93% in data set [2] (setting [6]).
Regarding `O=S([O-])([O-])=S.[Na+].[Na+]` [Sodium Thiosulfate, sodium thiosulfate], in data set [2], the “Total Impurity Amount %” value is 0.13% and 1.02% and 0.67% and 2.20%.
In the case of `CCCCCCCCCCCCCC(=O)OC(C)C` [IPM, isopropyl myristate], the “Enhancement Ratio” value was found to be 2 in data set [1] (3 % w/w) and 1 in data set [1] (5 % w/w).
Turning to `O=C1O[C@H]([C@H](O)CO)C(O)=C1O` [Erythorbic Acid, erythorbic acid], the “Total Impurity Amount %” value in data set [2] was 1.35% and 0.74%; in data set [2] (setting [3]) it was 0.50%; in data set [2] (setting [6]) it was 0.87%.
For the compound `OCC(O)CS` (stereo not shown) [Monothioglycerol, monothioglycerol], the “Total Impurity Amount %” value in data set [2] (setting [3]) was determined as 0.16%; in data set [2] (setting [4]) it was 1.09%; in data set [2] (setting [5]) it was 0.51%; in data set [2] (setting [6]) it was 1.49%.
Taken in the same sequence, the figures for `O=S=O` [Sulfur Dioxide, sulfur dioxide] were 0.16%, 1.04%, 0.54% and 1.83%.
As for `CCCCCCCCCCCCCCCC(=O)OC[C@H](O)[C@H]1OC(=O)C(O)=C1O` [Ascorbyl Palmitate, ascorbyl palmitate], the “Total Impurity Amount %” value was 0.12% in data set [2] (setting [3]), 0.58% in data set [2] (setting [4]), 0.28% in data set [2] (setting [5]) and 1.13% in data set [2] (setting [6]).
On to `O=[N+]([O-])C(Br)(CO)CO` [Bronopol, bronopol], for which the “Total Impurity Amount %” value is 0.18% in data set [2] (setting [3]), 0.81% in data set [2] (setting [4]), 0.69% in data set [2] (setting [5]) and 1.82% in data set [2] (setting [6]).
On to `O=S([O-])[O-].[Na+].[Na+]` [Sodium Sulfite, sodium sulfite], for which the “Total Impurity Amount %” value in data set [2] is 1.04% and 0.74%; in data set [2] (setting [3]), 0.14%; in data set [2] (setting [6]), 1.69%.
Take vitamin E: the “Total Impurity Amount %” value in data set [2] was 0.84% and 0.69%; in data set [2] (setting [3]) it was 0.12%; in data set [2] (setting [6]), 1.77%.
As to `Cc1cc(C(C)(C)C)c(O)c(C(C)(C)C)c1` [Butylated Hydroxytoluene (BHT), butylated hydroxytoluene], the “Total Impurity Amount %” value stood at 0.11% in data set [2] (setting [3]), 0.33% in data set [2] (setting [4]), 0.51% in data set [2] (setting [5]) and 1.18% in data set [2] (setting [6]).
